Measurements taken from PubChem BioAssay AID282 (DTP/NCI, 2004).
Several values for one entry are separate records, joined by “and”; a condition that tells them apart may be missing. Identical values can stand only once. Toxic doses and inconclusive results are not listed.

System: BDF1 mice, L1210 terephthalanilide-resistant leukemia ip, survival T/C
Assay: NCI In Vivo Anticancer Drug Screen. Data for tumor model L1210 Leukemia resistant to A Terephthalanilide; NSC 38280 (intraperitoneal) in B6D2F1 (BDF1) mice
Conditions: endpoint: mean survival time, higher = longer survival
Method: The antitumor activity of compounds was measured in mice bearing transplantable tumors. Survival or tumor size were measured and the results are expressed as the measurement made in the treated group (T) divided by the measurement made in the vehicle treated control group (C). The tumor model used in this assay is L1210 Leukemia resistant to A Terephthalanilide; NSC 38280 (intraperitoneal) in B6D2F1 (BDF1) mice

[1] = dose: 125.0 mg/kg/injection, schedule: Q01DX010 (ip), vehicle: saline
[2] = dose: 2.5 mg/kg/injection, schedule: Q01DX010 (ip), vehicle: saline
[3] = dose: 5.0 mg/kg/injection, schedule: Q01DX010 (ip), vehicle: saline
[4] = dose: 5.0 mg/kg/injection, schedule: Q01DX Z (ip), vehicle: carboxymethylcellulose (CMC)
[5] = dose: 10.0 mg/kg/injection, schedule: Q01DX010 (ip), vehicle: saline
[6] = dose: 20.0 mg/kg/injection, schedule: Q01DX Z (ip), vehicle: carboxymethylcellulose (CMC)
[7] = dose: 25.0 mg/kg/injection, schedule: Q01DX010 (ip), vehicle: saline
[8] = dose: 50.0 mg/kg/injection, schedule: Q01DX010 (ip), vehicle: saline
[9] = dose: 200.0 mg/kg/injection, schedule: Q01DX010 (ip), vehicle: saline
[10] = dose: 25.0 mg/kg/injection, schedule: Q01DX Z (ip), vehicle: carboxymethylcellulose (CMC)
[11] = dose: 2.5 mg/kg/injection, schedule: Q01DX Z (ip), vehicle: carboxymethylcellulose (CMC)
[12] = dose: 15.0 mg/kg/injection, schedule: Q01DX Z (ip), vehicle: carboxymethylcellulose (CMC)
[13] = dose: 125.0 mg/kg/injection, schedule: Q01DX Z (ip), vehicle: carboxymethylcellulose (CMC)
[14] = dose: 100.0 mg/kg/injection, schedule: Q01DX010 (ip), vehicle: saline
[15] = dose: 10.0 mg/kg/injection, schedule: Q01DX Z (ip), vehicle: carboxymethylcellulose (CMC)
[16] = dose: 12.5 mg/kg/injection, schedule: Q01DX010 (ip), vehicle: saline

SMILES: CCOC(N)=O
- T/C (dose: 50.0 mg/kg/injection, schedule: Q01DX Z (ip), vehicle: saline): 107 % of control
- T/C (dose: 100.0 mg/kg/injection, schedule: Q01DX Z (ip), vehicle: saline): 93 % of control
- T/C [1]: 100 % of control and 103 % of control
- T/C (dose: 200.0 mg/kg/injection, schedule: Q01DX Z (ip), vehicle: saline): 106 % of control
- T/C (dose: 250.0 mg/kg/injection, schedule: Q01DX010 (ip), vehicle: saline): 100 % of control and 103 % of control
- T/C (dose: 400.0 mg/kg/injection, schedule: Q01DX Z (ip), vehicle: saline): 106 % of control
- T/C (dose: 500.0 mg/kg/injection, schedule: Q01DX010 (ip), vehicle: saline): 99 % of control and 101 % of control
- T/C (dose: 500.0 mg/kg/injection, schedule: Q01DX Z (ip), vehicle: saline): 96 % of control
- T/C (dose: 1000.0 mg/kg/injection, schedule: Q01DX Z (ip), vehicle: saline): 91 % of control

SMILES: C[C@]12C=CC(=O)C=C1CC[C@@H]1[C@@H]2[C@@H](O)C[C@@]2(C)[C@H]1CC[C@]2(O)C(=O)CO
- T/C (dose: 12.5 mg/kg/injection, schedule: Q01DX010 (sc), vehicle: steriod suspending solution): 100 % of control
- T/C (dose: 25.0 mg/kg/injection, schedule: Q01DX010 (sc), vehicle: steriod suspending solution): 100 % of control
- T/C (dose: 50.0 mg/kg/injection, schedule: Q01DX010 (sc), vehicle: steriod suspending solution): 98 % of control
- T/C (dose: 100.0 mg/kg/injection, schedule: Q01DX010 (sc), vehicle: steriod suspending solution): 95 % of control

SMILES: S=P(N1CCOCC1)(N1CC1)N1CC1
- T/C (dose: 1.87 mg/kg/injection, schedule: Q01DX Z (ip), vehicle: carboxymethylcellulose (CMC)): 98 % of control and 111 % of control
- T/C [2]: 92 % of control and 101 % of control
- T/C (dose: 3.75 mg/kg/injection, schedule: Q01DX Z (ip), vehicle: carboxymethylcellulose (CMC)): 107 % of control and 115 % of control
- T/C [3]: 97 % of control and 102 % of control
- T/C [4]: 98 % of control and 114 % of control
- T/C [5]: 99 % of control and 100 % of control
- T/C (dose: 20.0 mg/kg/injection, schedule: Q01DX010 (ip), vehicle: saline): 101 % of control
- T/C [6]: 159 % of control
- T/C (dose: 40.0 mg/kg/injection, schedule: Q01DX Z (ip), vehicle: carboxymethylcellulose (CMC)): 104 % of control

SMILES: CN(C)/N=N/c1nc[nH]c1C(N)=O
- T/C [7]: 123 % of control and 101 % of control
- T/C [8]: 114 % of control
- T/C [9]: 102 % of control

SMILES: Nc1ncnc2[nH]ncc12
- T/C (dose: 1.5 mg/kg/injection, schedule: Q01DX010 (ip), vehicle: saline): 103 % of control and 105 % of control
- T/C (dose: 3.0 mg/kg/injection, schedule: Q01DX010 (ip), vehicle: saline): 103 % of control and 108 % of control
- T/C (dose: 6.0 mg/kg/injection, schedule: Q01DX010 (ip), vehicle: saline): 107 % of control and 111 % of control
- T/C (dose: 12.0 mg/kg/injection, schedule: Q01DX010 (ip), vehicle: saline): 102 % of control
- T/C [10]: 90 % of control

SMILES: Nc1nc(=S)c2ncn(C3OC(CO)C(O)C3O)c2[nH]1 (centres undefined)
- T/C (dose: 0.13 mg/kg/injection, schedule: Q01DX Z (ip), vehicle: carboxymethylcellulose (CMC)): 117 % of control
- T/C (dose: 0.3 mg/kg/injection, schedule: Q01DX Z (ip), vehicle: carboxymethylcellulose (CMC)): 120 % of control
- T/C (dose: 1.25 mg/kg/injection, schedule: Q01DX Z (ip), vehicle: carboxymethylcellulose (CMC)): 182 % of control
- T/C (dose: 2.0 mg/kg/injection, schedule: Q01DX010 (ip), vehicle: saline): 157 % of control and 179 % of control
- T/C [11]: 151 % of control
- T/C (dose: 4.0 mg/kg/injection, schedule: Q01DX010 (ip), vehicle: saline): 86 % of control and 110 % of control
- T/C [4]: 155 % of control
- T/C (dose: 8.0 mg/kg/injection, schedule: Q01DX010 (ip), vehicle: saline): 98 % of control
- T/C [12]: 111 % of control
- T/C [6]: 102 % of control

SMILES: Oc1cc(CN(CCCl)CCCl)c(O)cc1CN(CCCl)CCCl
- T/C (dose: 0.63 mg/kg/injection, schedule: Q01DX010 (ip), vehicle: saline): 116 % of control and 120 % of control
- T/C (dose: 1.0 mg/kg/injection, schedule: Q01DX Z (ip), vehicle: carboxymethylcellulose (CMC)): 121 % of control
- T/C [3]: 108 % of control and 113 % of control
- T/C (dose: 6.0 mg/kg/injection, schedule: Q01DX Z (ip), vehicle: carboxymethylcellulose (CMC)): 150 % of control

SMILES: O=C(Nc1ccc(C2=NCCN2)cc1)c1ccc(C(=O)Nc2ccc(C3=NCCN3)cc2)c(F)c1
- T/C (dose: 22.5 mg/kg/injection, schedule: Q01DX010 (ip), vehicle: saline): 100 % of control and 101 % of control
- T/C (dose: 45.0 mg/kg/injection, schedule: Q01DX010 (ip), vehicle: saline): 101 % of control and 102 % of control
- T/C (dose: 90.0 mg/kg/injection, schedule: Q01DX010 (ip), vehicle: saline): 103 % of control and 106 % of control
- T/C (dose: 180.0 mg/kg/injection, schedule: Q01DX010 (ip), vehicle: saline): 100 % of control

SMILES: CCn1cnc2c(=S)nc[nH]c21
- T/C (dose: 15.6 mg/kg/injection, schedule: Q01DX010 (ip), vehicle: saline): 104 % of control
- T/C [10]: 113 % of control
- T/C (dose: 31.3 mg/kg/injection, schedule: Q01DX010 (ip), vehicle: saline): 106 % of control and 109 % of control
- T/C (dose: 62.5 mg/kg/injection, schedule: Q01DX010 (ip), vehicle: saline): 95 % of control and 118 % of control
- T/C (dose: 100.0 mg/kg/injection, schedule: Q01DX Z (ip), vehicle: carboxymethylcellulose (CMC)): 155 % of control
- T/C [1]: 123 % of control and 106 % of control

SMILES: CC(=O)OCC1OC(n2ncc(=O)[nH]c2=O)C(OC(C)=O)C1OC(C)=O (centres undefined)
- T/C [13]: 183 % of control
- T/C (dose: 250.0 mg/kg/injection, schedule: Q01DX Z (ip), vehicle: carboxymethylcellulose (CMC)): 206 % of control
- T/C (dose: 375.0 mg/kg/injection, schedule: Q01DX Z (ip), vehicle: carboxymethylcellulose (CMC)): 214 % of control
- T/C (dose: 500.0 mg/kg/injection, schedule: Q01DX Z (ip), vehicle: carboxymethylcellulose (CMC)): 168 % of control

SMILES: CSc1ncnc2nc[nH]c12
- T/C [7]: 98 % of control and 100 % of control
- T/C (dose: 31.25 mg/kg/injection, schedule: Q01DX Z (ip), vehicle: carboxymethylcellulose (CMC)): 102 % of control
- T/C [8]: 100 % of control and 102 % of control
- T/C (dose: 62.5 mg/kg/injection, schedule: Q01DX Z (ip), vehicle: carboxymethylcellulose (CMC)): 105 % of control
- T/C [14]: 102 % of control and 107 % of control
- T/C [13]: 113 % of control
- T/C [9]: 102 % of control and 105 % of control

SMILES: CC[n+]1c(-c2ccccc2)c2cc(N)ccc2c2ccc(N)cc21
- T/C (dose: 1.25 mg/kg/injection, schedule: Q01DX010 (ip), vehicle: saline): 100 % of control
- T/C [2]: 90 % of control
- T/C [3]: 101 % of control
- T/C [5]: 95 % of control

SMILES: COc1cc(-c2ccc(Nc3ccccc3C(=O)O)c(OC)c2)ccc1Nc1ccccc1C(=O)O
- T/C (dose: 67.0 mg/kg/injection, schedule: Q01DX010 (ip), vehicle: saline): 150 % of control and 159 % of control

SMILES: CC(=O)Nc1ccc2nc3ccc(NC(C)=O)cc3[n+](-c3ccccc3)c2c1
- T/C [15]: 108 % of control
- T/C [16]: 107 % of control
- T/C [6]: 117 % of control
- T/C [7]: 109 % of control and 110 % of control
- T/C [8]: 121 % of control and 104 % of control
- T/C [14]: 106 % of control and 112 % of control
- T/C (dose: 150.0 mg/kg/injection, schedule: Q01DX Z (ip), vehicle: carboxymethylcellulose (CMC)): 121 % of control
- T/C (dose: 300.0 mg/kg/injection, schedule: Q01DX Z (ip), vehicle: carboxymethylcellulose (CMC)): 120 % of control
- T/C (dose: 400.0 mg/kg/injection, schedule: Q01DX Z (ip), vehicle: carboxymethylcellulose (CMC)): 91 % of control

SMILES: CS(=O)(=O)OCCC(=O)N1CCN(C(=O)CCOS(C)(=O)=O)CC1
- T/C [16]: 106 % of control and 109 % of control
- T/C [7]: 120 % of control
- T/C [8]: 107 % of control
- T/C [14]: 120 % of control

SMILES: NC(Cc1ccc(N(CCCl)CCCl)cc1)C(=O)O (centres undefined)
- T/C (dose: 0.31 mg/kg/injection, schedule: Q01DX Z (ip), vehicle: carboxymethylcellulose (CMC)): 113 % of control
- T/C (dose: 0.62 mg/kg/injection, schedule: Q01DX Z (ip), vehicle: carboxymethylcellulose (CMC)): 114 % of control
- T/C (dose: 2.0 mg/kg/injection, schedule: Q01DX Z (ip), vehicle: carboxymethylcellulose (CMC)): 174 % of control
- T/C [2]: 183 % of control
- T/C [11]: 162 % of control
- T/C (dose: 4.0 mg/kg/injection, schedule: Q01DX Z (ip), vehicle: carboxymethylcellulose (CMC)): 184 % of control
- T/C [3]: 166 % of control
- T/C [4]: 212 % of control
- T/C (dose: 7.5 mg/kg/injection, schedule: Q01DX Z (ip), vehicle: carboxymethylcellulose (CMC)): 172 % of control
- T/C [15]: 181 % of control
- T/C [12]: 120 % of control
